Article PMC6273912, “Novel 5-Substituted 2-(Aylmethylthio)-4-chloro-N-(5-aryl-1,2,4-triazin-3-yl)benzenesulfonamides: Synthesis, Molecular Structure, Anticancer Activity, Apoptosis-Inducing Activity and Metabolic Stability” (Molecules, 2016)

What was measured:
Type in all cases: cell-based, human
MCF-7 (breast cancer) = assay: MTT cell viability assay, MCF-7; conditions: mean ± SD
Method: (§1) All chemicals, if not stated otherwise, were obtained from Sigma-Aldrich (St. Louis, MO, USA). The MCF-7 cell line was purchased from Cell Lines Services (Eppelheim, Germany), the HeLa and HCT-116 cell lines were obtained from the Department of Microbiology, Tumor and Cell Biology, Karolinska Institute (Stockholm, Sweden). Cells were cultured in Dulbecco’s modified Eagle’s medium (DMEM) supplemented with 10% fetal bovine serum, 2 mM glutamine, 100 units/mL penicillin, and 100 μg/mL streptomycin. Cultures were maintained in a humidified atmosphere with 5% CO2 at 37 °C in an incubator (HeraCell, Heraeus, Langenselbold, Germany).
(§2) Cell viability was determined using the MTT (3-(4,5-dimethylthiazol-2-yl)-2,5-diphenyl-tetrazoliumbromide) assay. Stock solutions of the studied compounds were prepared in 100% DMSO. […] Cells were seeded in 96-well plates at a density of 5 × 10^3 cells/well and treated for 72 h with the examined compounds in the concentration range 1–100 μM (1, 10, 25, 50 and 100 μM). Following treatment, MTT (0.5 mg/mL) was added to the medium and cells were further incubated for 2 h at 37 °C. Cells were lysed with DMSO and the absorbance of the formazan solution was measured at 550 nm with a plate reader (1420 multilabel counter, Victor, Jügesheim, Germany). […] The experiment was performed in triplicate. Values are expressed as the mean ± SD of at least three independent experiments.

HeLa (cervical cancer) = assay: MTT cell viability assay, HeLa; conditions: Homo sapiens, 72 h; for IC50: 72 h of incubation, mean ± SD
Method: as §1, §2

HCT-116 (colon cancer) = assay: MTT cell viability assay, HCT-116; conditions: Homo sapiens, HCT-116, 72 h, 72 h of incubation, mean ± SD
Method: as §1, §2

[1] = Homo sapiens, MCF7, 72 h of incubation

Row | Structure (SMILES) | IC50 (MCF-7 (breast cancer); 72 h of incubation) [µM] | IC50 (MCF-7 (breast cancer); [1]) [µM] | IC50 (HeLa (cervical cancer)) [µM] | IC50 (HCT-116 (colon cancer)) [µM] | viability at 100 µM (HeLa (cervical cancer); HeLa, 100 μM, read-out: Viability of cell line at 100 μM (HeLa)) [%]
1 | N.N.[Cl][Pt][Cl] [Cisplatin, reference compound] | 3 ± 0.1 | – | – | – | –
2 | Cc1cc(S(=O)(=O)Nc2nncc(-c3cccc(F)c3)n2)c(SCc2ccccc2)cc1Cl [Compound 27, 2-Benzylthio-4-chloro-N-[5-(3-fluorophenyl)-1,2,4-triazin-3-yl]-5-methylbenzenesulfonamide] | – | 80 ± 2 | 84 ± 1 | 75 ± 1 | –
3 | COc1ccc(-c2cnnc(NS(=O)(=O)c3cc(C)c(Cl)cc3SCc3ccccc3)n2)cc1 [Compound 29, 2-Benzylthio-4-chloro-N-[5-(4-methoxyphenyl)-1,2,4-triazin-3-yl]-5-methylbenzenesulfonamide] | – | 110 ± 2 | 190 ± 7 | 720 ± 36 | –
4 | COc1cc(-c2cnnc(NS(=O)(=O)c3cc(C)c(Cl)cc3SCc3ccccc3)n2)cc(OC)c1OC [Compound 32, 2-Benzylthio-4-chloro-5-methyl-N-[5-(3,4,5-trimethoxyphenyl)-1,2,4-triazin-3-yl]benzenesulfonamide] | – | 87 ± 4 | 87 ± 4 | 88 ± 3 | –
5 | Cc1cc(S(=O)(=O)Nc2nncc(-c3cccc(F)c3)n2)c(SCc2ccc(C(F)(F)F)cc2)cc1Cl [Compound 33, 4-Chloro-N-[5-(3-fluorophenyl)-1,2,4-triazin-3-yl]-5-methyl-2-[4-(trifluoromethyl)benzylthio]benzenesulfonamide] | – | 88 ± 1 | 76 ± 3 | 67 ± 1 | –
6 | COc1ccc(-c2cnnc(NS(=O)(=O)c3cc(C)c(Cl)cc3SCc3c(C)noc3C)n2)cc1 [Compound 41, 4-Chloro-2-[(3,5-dimethylizoxazol-4-yl)methylthio]-N-[5-(4-methoxyphenyl)-1,2,4-triazin-3-yl]-5-methyl-benzenesulfonamide] | – | 99 ± 1 | 85 ± 1 | 97 ± 2 | –
7 | COc1ccc(-c2cnnc(NS(=O)(=O)c3cc(C(=O)Nc4ccccc4)c(Cl)cc3SCc3ccccc3)n2)cc1 [Compound 42, 4-Benzylthio-2-chloro-5-{N-[5-(4-methoxyphenyl)-1,2,4-triazin-3-yl]sulfamoyl}-N-phenylbenzamide] | – | 83 ± 2 | 82 ± 1 | 77 ± 2 | –
8 | COc1cccc(-c2cnnc(NS(=O)(=O)c3cc(C(=O)Nc4ccccc4)c(Cl)cc3SCc3ccccc3)n2)c1 [Compound 43, 4-Benzylthio-2-chloro-5-{N-[5-(3-methoxyphenyl)-1,2,4-triazin-3-yl]sulfamoyl}-N-phenylbenzamide] | – | 87 ± 2 | 130 ± 10 | 92 ± 3 | –
9 | COc1ccc(-c2cnnc(NS(=O)(=O)c3cc(C(=O)Nc4ccccc4)c(Cl)cc3SCc3ccccc3)n2)cc1OC [Compound 44, 4-Benzylthio-2-chloro-5-{N-[5-(3,4-dimethoxyphenyl)-1,2,4-triazin-3-yl]sulfamoyl}-N-phenylbenzamide] | – | 90 ± 5 | 160 ± 8 | 160 ± 6 | –
10 | O=C(Nc1ccc(Cl)cc1)c1cc(S(=O)(=O)Nc2nncc(-c3cccc(F)c3)n2)c(SCc2ccccc2)cc1Cl [Compound 45, 4-Benzylthio-2-chloro-N-(4-chlorophenyl)-5-{N-[5-(3-fluorophenyl)-1,2,4-triazin-3-yl]sulfamoyl}benzamide] | – | 90 ± 1 | 82 ± 1 | 97 ± 2 | –
11 | COc1cccc(-c2cnnc(NS(=O)(=O)c3cc(C(=O)Nc4ccc(Cl)cc4)c(Cl)cc3SCc3ccccc3)n2)c1 [Compound 48, 4-Benzylthio-2-chloro-N-(4-chlorophenyl)-5-{N-[5-(3-methoxyphenyl)-1,2,4-triazin-3-yl]sulfamoyl}-benzamide] | – | 87 ± 3 | 80 ± 2 | 80 ± 3 | –
12 | COc1ccc(-c2cnnc(NS(=O)(=O)c3cc(C(=O)Nc4ccc(Cl)cc4)c(Cl)cc3SCc3ccccc3)n2)cc1OC [Compound 49, 4-Benzylthio-2-chloro-N-(4-chlorophenyl)-5-{N-[5-(3,4-dimethoxyphenyl)-1,2,4-triazin-3-yl]sulfamoyl}-benzamide] | – | 81 ± 5 | 120 ± 6 | 110 ± 2 | –
13 | COc1cc(-c2cnnc(NS(=O)(=O)c3cc(C(=O)Nc4ccc(Cl)cc4)c(Cl)cc3SCc3ccccc3)n2)cc(OC)c1OC [Compound 50, 4-Benzylthio-2-chloro-N-(4-chlorophenyl)-5-{N-[5-(3,4,5-trimethoxyphenyl)-1,2,4-triazin-3-yl]sulfamoyl}-benzamide] | – | 120 ± 4 | 130 ± 8 | 115 ± 3 | –
14 | Cc1ccc(NC(=O)c2cc(S(=O)(=O)Nc3nncc(-c4cccc(F)c4)n3)c(SCc3ccccc3)cc2Cl)cc1 [Compound 51, 4-Benzylthio-2-chloro-5-{N-[5-(3-fluorophenyl)-1,2,4-triazin-3-yl]sulfamoyl}-N-(4-methylphenyl)benzamide] | – | 95 ± 5 | – | 190 ± 13 | 100
15 | COc1ccc(-c2cnnc(NS(=O)(=O)c3cc(C(=O)Nc4ccc(C)cc4)c(Cl)cc3SCc3ccccc3)n2)cc1 [Compound 53, 4-Benzylthio-2-chloro-5-{N-[5-(4-methoxyphenyl)-1,2,4-triazin-3-yl]sulfamoyl}-N-(4-methylphenyl)-benzamide] | – | 88 ± 2 | 74 ± 2 | 76 ± 2 | –
16 | COc1cccc(-c2cnnc(NS(=O)(=O)c3cc(C(=O)Nc4ccc(C)cc4)c(Cl)cc3SCc3ccccc3)n2)c1 [Compound 54, 4-Benzylthio-2-chloro-5-{N-[5-(3-methoxyphenyl)-1,2,4-triazin-3-yl]sulfamoyl}-N-(4-methylphenyl)benzamide] | – | 96 ± 5 | 82 ± 1 | 84 ± 5 | –
17 | COc1ccc(-c2cnnc(NS(=O)(=O)c3cc(C(=O)Nc4ccc(C)cc4)c(Cl)cc3SCc3ccccc3)n2)cc1OC [Compound 55, 4-Benzylthio-2-chloro-5-{N-[5-(3,4-dimethoxyphenyl)-1,2,4-triazin-3-yl]sulfamoyl}-N-(4-methylphenyl)-benzamide] | – | 150 ± 6 | 105 ± 4 | 150 ± 3 | –
18 | COc1cc(-c2cnnc(NS(=O)(=O)c3cc(C(=O)Nc4ccc(C)cc4)c(Cl)cc3SCc3ccccc3)n2)cc(OC)c1OC [Compound 56, 4-Benzylthio-2-chloro-N-(4-methylphenyl)-5-{N-[5-(3,4,5-trimethoxyphenyl)-1,2,4-triazin-3-yl]sulfamoyl}-benzamide] | – | 89 ± 3 | 80 ± 2 | 75 ± 2 | –
19 | COc1ccc(NC(=O)c2cc(S(=O)(=O)Nc3nncc(-c4ccc(OC)cc4)n3)c(SCc3ccccc3)cc2Cl)cc1 [Compound 57, 4-Benzylthio-2-chloro-N-(4-methoxyphenyl)-5-{N-[5-(4-methoxyphenyl)-1,2,4-triazin-3-yl]sulfamoyl}benzamide] | – | 90 ± 1 | 80 ± 1 | 73 ± 1 | –
20 | COc1ccc(NC(=O)c2cc(S(=O)(=O)Nc3nncc(-c4cccc(OC)c4)n3)c(SCc3ccccc3)cc2Cl)cc1 [Compound 58, 4-Benzylthio-2-chloro-N-(4-methoxyphenyl)-5-{N-[5-(3-methoxyphenyl)-1,2,4-triazin-3-yl]sulfamoyl}benzamide] | – | 92 ± 6 | 88 ± 6 | 98 ± 2 | –
21 | COc1ccc(NC(=O)c2cc(S(=O)(=O)Nc3nncc(-c4ccc(OC)c(OC)c4)n3)c(SCc3ccccc3)cc2Cl)cc1 [Compound 59, 4-Benzylthio-2-chloro-5-{N-[5-(3,4-dimethoxyphenyl)-1,2,4-triazin-3-yl]sulfamoyl}-N-(4-methoxyphenyl)-benzamide] | – | 100 ± 5 | 150 ± 2 | 140 ± 5 | –
22 | COc1ccc(NC(=O)c2cc(S(=O)(=O)Nc3nncc(-c4cc(OC)c(OC)c(OC)c4)n3)c(SCc3ccccc3)cc2Cl)cc1 [Compound 60, 4-Benzylthio-2-chloro-N-(4-methoxyphenyl)-5-{N-[5-(3,4,5-trimethoxyphenyl)-1,2,4-triazin-3-yl]sulfamoyl}-benzamide] | – | 270 ± 13 | 230 ± 5 | 230 ± 18 | –
